From PubChem BioAssay (NCI) come the findings set out here.

Test systems include COLO 205 colon; HCC-2998 colon; HOP-92 NSCLC; K-562 leukemia; NCI/ADR-RES ovarian; SF-295 CNS; SF-539 CNS.
Holding throughout (assay): NCI-60 cell line screen, 48 h

Each structure is given as a SMILES string.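 Exposure lasted 48 hours, with cells grown in 96-well plates and compounds tested at five concentrations. Here, GI50 denotes the concentration required for 50% inhibition of growth. TGI: total growth inhibition.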

As to `C=C1C(=O)O[C@H]2[C@H]1CC/C(Cn1cc(-c3ccccc3)nn1)=C\CC[C@@]1(C)O[C@@H]21`, the GI50 is 1.08 µM in the experiment on COLO 205 colon; 6.16 µM in the experiment with HCC-2998 colon; 1.42 µM in the experiment with HOP-92 NSCLC; 1.76 µM in the experiment with K-562 leukemia; 6.17 µM in the experiment on NCI/ADR-RES ovarian; 7.88 µM in the experiment on SF-295 CNS. Further, the GI50 in the experiment on SF-539 CNS was 2.01 µM. Further, the TGI with COLO 205 colon was 2.36 µM; in the experiment on HCC-2998 colon, 13 µM; in the experiment on HOP-92 NSCLC, 3.6 µM; in the experiment on K-562 leukemia it was 8.49 µM; in the experiment with NCI/ADR-RES ovarian, 13.7 µM; with SF-295 CNS it was 15.4 µM. For the same compound, the TGI with SF-539 CNS stood at 7.18 µM.

Take `CCN(CC)CCCCCCCNc1c2ccc(Cl)cc2nc2ccc(OC)cc12`: the GI50 was 1.09 µM with COLO 205 colon; 1.76 µM in the experiment on HCC-2998 colon; 1.29 µM in the experiment with HOP-92 NSCLC; 0.258 µM in the experiment on K-562 leukemia; 1.03 µM in the experiment with NCI/ADR-RES ovarian; 0.701 µM in the experiment with SF-295 CNS. Further, the TGI worked out at 2.48 µM in the experiment on COLO 205 colon; 3.22 µM in the experiment on HCC-2998 colon; 3.45 µM in the experiment on HOP-92 NSCLC; 0.835 µM in the experiment with K-562 leukemia; 4.07 µM in the experiment with NCI/ADR-RES ovarian; 2.37 µM with SF-295 CNS.

Consider `CCOC(=O)Oc1c(OC)cc(C(=O)O[C@@H]2C[C@@H]3CN4CCc5c([nH]c6cc(OC)ccc56)[C@H]4C[C@@H]3[C@H](C(=O)OC)[C@H]2OC)cc1OC`, for which the GI50 was 10.3 µM with COLO 205 colon; 5.06 µM in the experiment with HCC-2998 colon; 3.64 µM in the experiment on HOP-92 NSCLC; 3.5 µM in the experiment on K-562 leukemia; 4.37 µM in the experiment with NCI/ADR-RES ovarian; 10.2 µM in the experiment on SF-295 CNS. Further, the GI50 in the experiment with SF-539 CNS was 4.18 µM. The TGI with COLO 205 colon stood at 24.1 µM; in the experiment with HCC-2998 colon, 20 µM; in the experiment with HOP-92 NSCLC, 18.9 µM; in the experiment with K-562 leukemia, 35.7 µM; in the experiment with NCI/ADR-RES ovarian it was 23.3 µM; in the experiment with SF-295 CNS, 31.4 µM. Further, in the experiment with SF-539 CNS, the TGI worked out at 14.8 µM.

Turning to `O=C(CCCn1ccnc1[N+](=O)[O-])NCCn1ccnc1`, the TGI with COLO 205 colon, with HCC-2998 colon, in the experiment with K-562 leukemia, in the experiment with NCI/ADR-RES ovarian, in the experiment with SF-295 CNS and with SF-539 CNS was greater than 100 µM each time.

For the compound `O=C1c2ccccc2-c2c1c1ccccc1c(=O)n2CCCN1CCOCC1`, the GI50 in the experiment with COLO 205 colon was greater than 100 µM; with HCC-2998 colon, greater than 40.1 µM; with HOP-92 NSCLC, 4.81 µM; in the experiment with K-562 leukemia, greater than 100 µM; in the experiment with NCI/ADR-RES ovarian, 18.2 µM; with SF-295 CNS, 6.72 µM. Moreover, the GI50 in the experiment on SF-539 CNS was 6.65 µM. Further, the TGI in the experiment on COLO 205 colon was greater than 100 µM; in the experiment on HCC-2998 colon, greater than 100 µM; in the experiment with HOP-92 NSCLC, 13 µM; in the experiment on K-562 leukemia, greater than 100 µM; with NCI/ADR-RES ovarian, greater than 100 µM; in the experiment on SF-295 CNS it was 20.6 µM. The TGI in the experiment with SF-539 CNS amounted to 19.6 µM.

For the compound `Cc1ccc2c(=O)c3cccc(CC(=O)O)c3oc2c1C`, the GI50 with COLO 205 colon, with HCC-2998 colon, with HOP-92 NSCLC, in the experiment with K-562 leukemia, with NCI/ADR-RES ovarian and with SF-295 CNS was greater than 100 µM throughout. Also, the GI50 in the experiment on SF-539 CNS was greater than 100 µM. Besides, the TGI in the experiment with COLO 205 colon, with HCC-2998 colon, in the experiment on HOP-92 NSCLC, in the experiment with K-562 leukemia, in the experiment on NCI/ADR-RES ovarian and with SF-295 CNS was greater than 100 µM in each case. In the experiment on SF-539 CNS, this compound displayed a TGI greater than 100 µM.

With `COc1ccc(-c2nc(-c3ccccc3)c(-c3ccccc3)n2C2CC2)cc1OC1CCCC1`, the GI50 was 51.3 µM with COLO 205 colon; 11.5 µM in the experiment with K-562 leukemia; 58.6 µM in the experiment with NCI/ADR-RES ovarian; 67.5 µM in the experiment with SF-295 CNS; 90.9 µM in the experiment with SF-539 CNS. Besides, the TGI in the experiment on COLO 205 colon, in the experiment on K-562 leukemia, in the experiment with NCI/ADR-RES ovarian, in the experiment on SF-295 CNS and in the experiment with SF-539 CNS was greater than 165 µM throughout.

Consider `Cc1ccc2c(N)c(C(=O)N[C@H]3CCc4cc(N5CC6CCC(C5)N6)ccc4C3)sc2n1`, for which the GI50 in the experiment on COLO 205 colon is 0.383 µM; with HCC-2998 colon, 0.342 µM; in the experiment on HOP-92 NSCLC, 0.642 µM; in the experiment with K-562 leukemia it was 0.203 µM; in the experiment on NCI/ADR-RES ovarian, 0.798 µM; with SF-295 CNS, 0.509 µM. Also, the GI50 with SF-539 CNS was 0.531 µM. The TGI is 1.49 µM in the experiment with COLO 205 colon; 2.08 µM in the experiment with HCC-2998 colon; 4.08 µM in the experiment on HOP-92 NSCLC; 18 µM in the experiment on K-562 leukemia; 2.76 µM with NCI/ADR-RES ovarian; 2.59 µM in the experiment on SF-295 CNS. For the same compound, the TGI in the experiment with SF-539 CNS was determined as 2.21 µM.

With `COc1ccc(/C=C\c2cc(OC)c(OC)c(OC)c2)cc1OCC(=O)Nc1nc2ccc(C(F)(F)F)cc2s1`, the GI50 was 17.1 µM in the experiment on COLO 205 colon; 4.23 µM in the experiment on HCC-2998 colon; 2.88 µM in the experiment on HOP-92 NSCLC; 3.3 µM with K-562 leukemia; 2.12 µM in the experiment on NCI/ADR-RES ovarian; 3.36 µM with SF-295 CNS. Further, the GI50 with SF-539 CNS is 2.66 µM. Moreover, the TGI in the experiment on COLO 205 colon is 68 µM; with HCC-2998 colon it was greater than 100 µM; in the experiment on HOP-92 NSCLC it was 75.6 µM; in the experiment on K-562 leukemia, greater than 100 µM; in the experiment with NCI/ADR-RES ovarian, 5.8 µM; with SF-295 CNS, greater than 100 µM. Further, the TGI in the experiment on SF-539 CNS was 7.87 µM.

`CC(C)(O)C1OCC(C2CCC3(C)C4=CCC5C(C)(C)C(O)CCC5(C)C4CCC23C)CC1O` (centres undefined): the TGI is 31.5 µM with COLO 205 colon; 30.1 µM in the experiment with HCC-2998 colon; 27.6 µM in the experiment on HOP-92 NSCLC; 17.3 µM in the experiment on K-562 leukemia; 27 µM in the experiment with NCI/ADR-RES ovarian; 26.8 µM with SF-295 CNS. In the experiment with SF-539 CNS, this compound had a TGI of 26.4 µM.

In the case of `O=c1cc(-c2ccccc2)nc2n1CCN2Cc1ccccc1`, the GI50 in the experiment on COLO 205 colon is 26.1 µM; in the experiment on HOP-92 NSCLC, 42.8 µM; with K-562 leukemia, 34.7 µM; in the experiment on SF-295 CNS, 21.1 µM; in the experiment on SF-539 CNS, 27.8 µM. The TGI was 68.1 µM in the experiment with COLO 205 colon; greater than 100 µM in the experiment on HOP-92 NSCLC; 90.3 µM in the experiment on K-562 leukemia; 72.2 µM in the experiment with SF-295 CNS; 73.5 µM with SF-539 CNS.
